# ChEMBL document CHEMBL1212941, “Eucapsitrione, an anti-Mycobacterium tuberculosis anthraquinone derivative from the cultured freshwater cyanobacterium Eucapsis sp” (J Nat Prod, 2010)
# Activity calls are given as the source filed them. No cut-off for these calls is given here.
# Tests used:
# Vero = test: Cytotoxicity against african green monkey Vero cells; type: cell-based; details: Chlorocebus sabaeus
# [1] = system: Mycobacterium tuberculosis; test: Antimycobacterial activity against Mycobacterium tuberculosis H37Rv by low oxygen recovery assay; type: functional
# [2] = system: Mycobacterium tuberculosis; test: Antimycobacterial activity against Mycobacterium tuberculosis H37Rv by microplate alamar blue assay; type: functional
# Escherichia coli = test: Antibacterial activity against Escherichia coli at 55 uM by broth microdilution method; type: functional, organism-based
# [3] = system: Mycolicibacterium smegmatis; test: Antimycobacterial activity against Mycobacterium smegmatis at 55 uM by broth microdilution method; type: functional, organism-based
# Staphylococcus aureus = test: Antibacterial activity against Staphylococcus aureus at 55 uM by broth microdilution method; type: functional, organism-based
# Candida albicans = test: Antifungal activity against Candida albicans at 55 uM by broth microdilution method; type: functional, organism-based
compound,measurement,setting,value
O=c1c2cccc(O)c2c(=O)c2c(O)c3c(cc12)c(=O)c1c(O)cccc13 [EUCAPSITRIONE],IC50,Vero,> 28 µM
same,MIC,[1],6.4 µM
same,MIC,[2],3.1 µM
same,Activity,Escherichia coli,inactive
same,Activity,[3],inactive
same,Activity,Staphylococcus aureus,inactive
same,Activity,Candida albicans,inactive
